Reference: patent EP4741383A1, “COMPOUND AND USE THEREOF AS ANTI-CANCER DRUG” (Tyligand Bioscience (Shanghai) Limited, priority 2023, dated 2025)

Assays:
KYSE520 = assay: CellTiter-Glo cell proliferation inhibition, KYSE520; assay type: cell-based, human; settings: Homo sapiens, KYSE-520; KYSE520 cells, 120 hours, CellTiter-Glo
[1] = target: T1, SHP2 enzyme (catalytic domain, amino acid sequence 224-528) (Homo sapiens, UniProt Q06124); assay: SHP2 enzyme inhibition assay (DiFMUP substrate, fluorescence); assay type: biochemical; settings: SHP2 catalytic domain, DiFMUP substrate, 30 min pre-incubation; read-out: S HP2 I C50
T1 construct: purchased GenScript
T1 sequence (Q06124 224-528): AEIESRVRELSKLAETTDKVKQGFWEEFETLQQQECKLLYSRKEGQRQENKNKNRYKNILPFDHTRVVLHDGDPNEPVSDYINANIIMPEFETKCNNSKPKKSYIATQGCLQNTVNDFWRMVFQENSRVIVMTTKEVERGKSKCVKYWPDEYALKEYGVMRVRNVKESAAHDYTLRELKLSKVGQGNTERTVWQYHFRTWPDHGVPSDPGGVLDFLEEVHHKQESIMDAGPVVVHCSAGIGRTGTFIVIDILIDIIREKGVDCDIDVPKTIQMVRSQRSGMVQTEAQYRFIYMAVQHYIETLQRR
How it was run: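 SHP2 catalytic domain (aa 224-528) preincubated 30 min at room temperature with compounds (10-point 3-fold series) in HEPES pH 7.2 buffer with NaCl, EDTA, DTT, BSA, Brij35. DiFMUP from 50 µM working solution added, 5 min reaction; fluorescence 340/450 nm; IC50 from nonlinear dose-response fit.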

Row | SMILES | IC50 (KYSE520) [µM] | IC50 [1] [nM]
1 | O=C(Nc1ccc(-c2ccsc2)cc1)C(=O)Nc1ccc(-c2cc3cc(F)c(-c4nnn[nH]4)nc3n2C2CCC2)cc1 [Example 132] | 1.1 | 27
2 | O=C(Nc1ccc(-c2ccsc2)cc1)C(=O)Nc1ccc(-c2sc3cc(F)c(-c4nnn[nH]4)cc3c2C2CCC2)cc1 [Example 133] | 0.688 | 69
3 | O=C(Nc1ccc(-c2ccsc2)cc1)C(=O)Nc1ccc(-c2cc3cc(F)c(-c4nnn[nH]4)c(F)c3n2C2CCC2)cc1 [Example 134] | 0.334 | 69
